How the values were obtained:
[1] = tested on: S. pneumoniae D39V; assay: Bliss interaction score (quartile over a dose matrix) (fitness difference); higher = more antagonism (negative = synergy)
In short: (§1)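 Fitness here means normalised growth, inferred for single drugs from the combination data. Growth was OD595 at entry into stationary phase, divided by the plate's robust no-drug mean and capped at 1. The Bliss score is observed minus expected fitness, with the expectation being the product, and its quartiles span technical, biological and donor/recipient replicates.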

[2] = tested on: S. aureus DSM 20231; assay: as above
In short: as §1

[3] = tested on: B. subtilis 168; assay: as above
In short: as §1

[4] = tested on: S. aureus Newman; assay: as above
In short: as §1

[5] = tested on: S. pneumoniae D39V; assay: fitness (endpoint OD595 vs no drug) (fraction); higher = more growth
In short: (§2)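 Growth medium was TSB, LB Lennox or CY, and plates were kept at 37 °C. Inoculation was at OD595 0.01 in 384-well plates, at 30 µl per well or 55 µl for S. pneumoniae. OD595 was monitored every 30 min for 14 h and background-subtracted using the first reading. Fitness is the optical density on entering stationary phase divided by the robust mean of no-drug controls, with values capped at 1.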

[6] = tested on: S. aureus DSM 20231; assay: as above
In short: as §2

[7] = tested on: B. subtilis 168; assay: as above
In short: as §2

[8] = tested on: S. aureus Newman; assay: as above
In short: as §2

[9] = first compound 0.0075 µg/mL, partner 4 µg/mL
[10] = first compound 0.0075 µg/mL, partner 8 µg/mL
[11] = first compound 0.0075 µg/mL, partner 16 µg/mL
[12] = first compound 0.0075 µg/mL, partner 32 µg/mL, one replicate
[13] = first compound 0.0075 µg/mL, partner 64 µg/mL, one replicate
[14] = first compound 0.015 µg/mL, partner 16 µg/mL
[15] = first compound 0.015 µg/mL, partner 32 µg/mL, one replicate
[16] = first compound 0.015 µg/mL, partner 64 µg/mL, one replicate
[17] = first compound 0.03 µg/mL, partner 8 µg/mL
[18] = first compound 0.03 µg/mL, partner 16 µg/mL
[19] = first compound 0.03 µg/mL, partner 32 µg/mL, one replicate
[20] = first compound 0.03 µg/mL, partner 64 µg/mL, one replicate
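Throughout, for Bliss interaction score (quartile over a dose matrix): first quartile when negative (synergy) and third quartile when positive (antagonism).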
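Throughout, for fitness (endpoint OD595 vs no drug): OD595 on entry to stationary phase over no-drug wells; at most 1.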

In the case of `COc1c(N2C[C@@H]3CCCN[C@@H]3C2)c(F)cc2c(=O)c(C(=O)O)cn(C3CC3)c12` [Moxifloxacin] + CN[C@@H]1[C@H](O)[C@H](NC)[C@H]2O[C@@]3(O)C(=O)C[C@@H](C)O[C@H]3O[C@@H]2[C@H]1O [Spectinomycin], the Bliss interaction score [1] was 0.0328, the Bliss interaction score [2] was -0.0426 and the Bliss interaction score [3] was -0.0287. It also gave a Bliss interaction score [4] of -0.0569, a fitness ([5]; first compound 0.0037 µg/mL, partner 4 µg/mL, one replicate) of 0.897 and a fitness ([5]; first compound 0.0037 µg/mL, partner 8 µg/mL, one replicate) of 0.83. It also gave a fitness ([5]; first compound 0.005 µg/mL, partner 4 µg/mL) of 0.923, a fitness ([5]; first compound 0.005 µg/mL, partner 8 µg/mL) of 0.936 and a fitness ([5]; first compound 0.005 µg/mL, partner 16 µg/mL) of 0.82. The fitness ([5]; first compound 0.0075 µg/mL, partner 4 µg/mL, one replicate) was 0.912, the fitness ([5]; first compound 0.0075 µg/mL, partner 8 µg/mL, one replicate) was 0.816 and the fitness ([5]; first compound 0.01 µg/mL, partner 4 µg/mL) was 0.944. It also gave a fitness ([5]; first compound 0.01 µg/mL, partner 8 µg/mL) of 0.93, a fitness ([5]; first compound 0.01 µg/mL, partner 16 µg/mL) of 0.836 and a fitness ([5]; first compound 0.015 µg/mL, partner 4 µg/mL, one replicate) of 0.891. The fitness ([5]; first compound 0.015 µg/mL, partner 8 µg/mL, one replicate) was 0.813, the fitness ([5]; first compound 0.02 µg/mL, partner 4 µg/mL) was 0.896 and the fitness ([5]; first compound 0.02 µg/mL, partner 8 µg/mL) was 0.843. The fitness ([5]; first compound 0.02 µg/mL, partner 16 µg/mL) was 0.796, the fitness [6, 9] was 0.822 and the fitness [6, 10] was 0.848. The fitness [6, 11] was 0.731, the fitness [6, 12] was 0.666 and the fitness [6, 13] was 0.0692. The fitness ([6]; first compound 0.015 µg/mL, partner 4 µg/mL) was 0.725, the fitness ([6]; first compound 0.015 µg/mL, partner 8 µg/mL) was 0.734 and the fitness [6, 14] was 0.743. It also gave a fitness [6, 15] of 0.656, a fitness [6, 16] of 0.0534 and a fitness ([6]; first compound 0.03 µg/mL, partner 4 µg/mL) of 0.654. For the same compound, the fitness [6, 17] was 0.74, the fitness [6, 18] was 0.694 and the fitness [6, 19] was 0.625. For the same compound, the fitness [6, 20] was 0.0231, the fitness ([6]; first compound 0.06 µg/mL, partner 4 µg/mL, one replicate) was 0.664 and the fitness ([6]; first compound 0.06 µg/mL, partner 8 µg/mL, one replicate) was 0.675. For the same compound, the fitness ([6]; first compound 0.06 µg/mL, partner 16 µg/mL, one replicate) was 0.673, the fitness ([6]; first compound 0.12 µg/mL, partner 4 µg/mL, one replicate) was 0.505 and the fitness ([6]; first compound 0.12 µg/mL, partner 8 µg/mL, one replicate) was 0.457. For the same compound, the fitness ([6]; first compound 0.12 µg/mL, partner 16 µg/mL, one replicate) was 0.523, the fitness ([7]; first compound 0.0312 µg/mL, partner 2 µg/mL) was 0.0488 and the fitness ([7]; first compound 0.0312 µg/mL, partner 4 µg/mL) was 0.0437. For the same compound, the fitness ([7]; first compound 0.0312 µg/mL, partner 8 µg/mL) was 0.0518, the fitness ([7]; first compound 0.0625 µg/mL, partner 2 µg/mL) was 0.0414 and the fitness ([7]; first compound 0.0625 µg/mL, partner 4 µg/mL) was 0.0348. It also gave a fitness ([7]; first compound 0.0625 µg/mL, partner 8 µg/mL) of 0.0153, a fitness ([7]; first compound 0.125 µg/mL, partner 2 µg/mL) of 0.026 and a fitness ([7]; first compound 0.125 µg/mL, partner 4 µg/mL) of 0.0367. For the same compound, the fitness ([7]; first compound 0.125 µg/mL, partner 8 µg/mL) was 0.0296, the fitness ([7]; first compound 2 µg/mL, partner 2 µg/mL) was 0.0229 and the fitness ([7]; first compound 2 µg/mL, partner 4 µg/mL) was 0.0184. The fitness ([7]; first compound 2 µg/mL, partner 8 µg/mL) was 0.0086, the fitness ([7]; first compound 4 µg/mL, partner 2 µg/mL) was 0.0296 and the fitness ([7]; first compound 4 µg/mL, partner 4 µg/mL) was 0.0084. For the same compound, the fitness ([7]; first compound 4 µg/mL, partner 8 µg/mL) was 0.0039, the fitness ([7]; first compound 8 µg/mL, partner 2 µg/mL) was 0.0255 and the fitness ([7]; first compound 8 µg/mL, partner 4 µg/mL) was 0.02. For the same compound, the fitness ([7]; first compound 8 µg/mL, partner 8 µg/mL) was 0.0092, the fitness [8, 9] was 0.742 and the fitness [8, 10] was 0.748. For the same compound, the fitness [8, 11] was 0.7, the fitness [8, 12] was 0.464 and the fitness [8, 13] was 0.0581. The fitness [8, 14] was 0.497, the fitness [8, 15] was 0.294 and the fitness [8, 16] was 0.047. The fitness [8, 17] was 0.0882, the fitness [8, 18] was 0.0514 and the fitness [8, 19] was 0.0318. The fitness [8, 20] was 0.0289.

From the supplement of paper PMC10627819
